Consider 37 molecules from patent publication US11401286B2 (Tetra Discovery Partners, LLC, priority 2012, dated 2022).

Each structure is given as a SMILES string. Where a name gives a salt, the structure may show the parent alone.

PDE4D7, sequence (Q08499 other isoform, or with tags, fused parts or gaps): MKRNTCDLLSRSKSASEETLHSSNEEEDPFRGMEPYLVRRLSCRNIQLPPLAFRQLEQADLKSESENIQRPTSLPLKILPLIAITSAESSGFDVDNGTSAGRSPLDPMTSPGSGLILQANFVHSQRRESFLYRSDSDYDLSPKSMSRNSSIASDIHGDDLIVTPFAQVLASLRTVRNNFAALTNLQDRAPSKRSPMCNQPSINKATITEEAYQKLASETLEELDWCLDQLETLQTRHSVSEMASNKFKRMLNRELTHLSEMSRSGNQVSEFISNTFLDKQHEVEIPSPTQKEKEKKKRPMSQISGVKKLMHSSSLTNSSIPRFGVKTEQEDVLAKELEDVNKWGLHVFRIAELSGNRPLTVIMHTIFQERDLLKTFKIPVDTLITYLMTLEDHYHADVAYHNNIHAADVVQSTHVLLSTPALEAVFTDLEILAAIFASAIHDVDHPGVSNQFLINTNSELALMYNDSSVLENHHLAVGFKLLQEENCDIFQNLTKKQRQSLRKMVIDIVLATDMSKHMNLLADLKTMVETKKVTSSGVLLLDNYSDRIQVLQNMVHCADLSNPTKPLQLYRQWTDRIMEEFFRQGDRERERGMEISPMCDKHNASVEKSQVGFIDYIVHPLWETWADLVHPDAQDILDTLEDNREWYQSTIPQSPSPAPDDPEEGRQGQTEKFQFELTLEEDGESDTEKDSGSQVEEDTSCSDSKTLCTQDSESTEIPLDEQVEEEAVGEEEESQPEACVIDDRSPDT

One assay concerns the target PDE4D7 (Homo sapiens (Human), UniProt Q08499). Particulars: read-out: PDE4D7 IC50.
For `CN(C)CCc1ccc(Nc2cc(-c3cccc(Cl)c3)nc3c2CCC3)cc1` [Example 105, 2-(3-Chlorophenyl)-N-(4-(2-(dimethylamino)ethyl)phenyl)-6,7-dihydro-5H-cyclopenta[b]pyridin-4-amine hydrochloride], the IC50 (in general, the concentration that gives 50% inhibition) is above 1000 nM.

Consider `CCc1cc(Nc2ccc(CCO)cc2)nc(-c2cccc(Cl)c2)n1` [Example 191, 2-(4-((2-(3-chlorophenyl)-6-ethylpyrimidin-4-yl)amino)phenyl)ethanol], for which the IC50 is below 1000 nM.

`CCc1cc(Cc2ccc(CCO)cc2)nc(-c2cccc(Cl)c2)n1` [Example 67, 2-(4-((2-(3-Chlorophenyl)-6-ethylpyrimidin-4-yl)methyl)phenyl)ethanol]: the IC50 was below 1000 nM.

Staying with this assay, now noted: read-out: PDE4D7 IC50; PDE4D7 without asterisk.
Regarding `CCc1c(C)nc(-c2ccc(Cl)s2)nc1Nc1ccc(Cn2cccn2)cc1` [Example 299, 2-(5-Chloro-2-thienyl)-5-ethyl-6-methyl-N-[4-(pyrazol-1-ylmethyl)phenyl]pyrimidin-4-amine], the IC50 is above 1000 nM.

In the case of `CCc1c(C)nc(-c2ccc(Cl)s2)nc1Nc1ccc(Cc2noc(=O)[nH]2)cc1` [Example 302, 3-[[4-[[2-(5-Chloro-2-thienyl)-5-ethyl-6-methyl-pyrimidin-4-yl]amino]phenyl]methyl]-4H-1,2,4-oxadiazol-5-one], the IC50 is above 1000 nM.

As to `NC(=O)Cc1ccc(Nc2cc(-c3cc(Cl)ccc3Cl)nc3c2CCC3)cc1` [Example 155, 2-(4-((2-(2,5-Dichlorophenyl)-6,7-dihydro-5H-cyclopenta[b]pyridin-4-yl)amino)phenyl)acetamide hydrochloride], the IC50 is above 1000 nM.

`OCCc1ccc(Nc2cc(-c3cc(Cl)ccc3Cl)nc3c2CCC3)cc1` [Example 156, 2-(4-((2-(2,5-Dichlorophenyl)-6,7-dihydro-5H-cyclopenta[b]pyridin-4-yl)amino)phenyl)ethanol hydrochloride]: the 50% inhibitory concentration (IC50) is above 1000 nM.

As to `CCc1cc(Oc2ccc(CC(N)=O)cn2)nc(-c2cccc(Cl)c2)n1` [Example 183, 2-(6-((2-(3-Chlorophenyl)-6-ethylpyrimidin-4-yl)oxy)pyridin-3-yl)acetamide], the IC50 was above 1000 nM.

As to `OCCc1ccc(Nc2cc(-c3ccsc3)nc3c2CCC3)cc1` [Example 243, 2 2-(4-((2-(Thiophen-3-yl)-6,7-dihydro-5H-cyclopenta[b]pyridin-4-yl)amino)phenyl)ethanol], the IC50 was above 1000 nM.

For `NC(=O)Cc1ccc(Nc2cc(-c3ccsc3)nc3c2CCC3)cc1` [Example 244, 2-(4-((2-(Thiophen-3-yl)-6,7-dihydro-5H-cyclopenta[b]pyridin-4-yl)amino)phenyl)acetamide], the IC50 is above 1000 nM.

As to `NC(=O)Cc1ccc(Nc2cc(-c3ccco3)nc3c2CCC3)cc1` [Example 240, 2-(4-((2-(Furan-2-yl)-6,7-dihydro-5H-cyclopenta[b]pyridin-4-yl)amino)phenyl)acetamide hydrochloride], the IC50 is above 1000 nM.

Consider `COC(=O)Cc1ccc(Cc2cc(-c3cccc(Cl)c3)nc(C(F)(F)F)c2)cc1` [Example 141, Methyl 2-(4-((2-(3-chlorophenyl)-6-(trifluoromethyl)pyridin-4-yl)methyl)phenyl)acetate], for which the IC50 was above 1000 nM.

For the molecule `NC(=O)Cc1ccc(Cc2cc(-c3cccc(Cl)c3)nc(C(F)(F)F)c2)cc1` [Example 144, 2-(4-((2-(3-Chlorophenyl)-6-(trifluoromethyl)pyridin-4-yl)methyl)phenyl)acetamide], the IC50 was above 1000 nM.

Consider `Cc1cc(Nc2cc(-c3cccc(Cl)c3)nc3c2CCC3)ccc1CC#N` [Example 109, 2-(4-((2-(3-Chlorophenyl)-6,7-dihydro-5H-cyclopenta[b]pyridin-4-yl)amino)-2-methylphenyl)acetonitrile hydrochloride], for which the IC50 is above 1000 nM.

Take `O=C(O)Cc1ccc(Nc2nc(-c3cccc(Cl)c3)nc3c2CCC3)cc1` [Example 10, 2-[4-[[2-(3-Chlorophenyl)-6,7-dihydro-5H-cyclopenta[d]pyrimidin-4-yl]amino]phenyl]acetic acid]: the IC50 is above 1000 nM.

On to `NC(=O)Cc1ccc(Cc2cc(C(F)(F)F)nc(-c3cccc(Cl)c3)n2)cc1` [Example 204, 2-(4-((2-(3-Chlorophenyl)-6-(trifluoromethyl)pyrimidin-4-yl)methyl)phenyl)acetamide], for which the IC50 was above 1000 nM.

As to `NC(=O)Cc1ccc(Nc2nc(-c3cccc(Cl)c3)nc3c2CCC3)cc1` [Example 21, 2-[4-[[2-(3-chlorophenyl)-6,7-dihydro-5H-cyclopenta[d]pyrimidin-4-yl]amino]phenyl]acetamide], the IC50 was above 1000 nM.

For `COC(=O)Cc1ccc(Cc2cc(C(F)(F)F)nc(-c3cccc(Cl)c3)n2)cc1` [Example 203, Methyl 2-(4-((2-(3-chlorophenyl)-6-(trifluoromethyl)pyrimidin-4-yl)methyl)phenyl)acetate], the IC50 is above 1000 nM.

In the case of `CCc1cc(Nc2ccc(C(C)(C)CO)cc2)nc(-c2cccc(Cl)c2)n1` [Example 184, 2-(4-((2-(3-Chlorophenyl)-6-ethylpyrimidin-4-yl)amino)phenyl)-2-methylpropan-1-ol], the IC50 was above 1000 nM.

As for `NC(=O)Cc1ccc(Cc2cc(-c3cccc(Cl)c3)nc3c2CCC3)cc1` [Example 125, 2-(4-((2-(3-Chlorophenyl)-6,7-dihydro-5H-cyclopenta[b]pyridin-4-yl)methyl)phenyl)acetamide hydrochloride], the IC50 is above 1000 nM.

For `OCCc1ccc(Nc2cc(-c3cccc(Cl)c3)nc(C3CC3)c2)cc1` [Example 140, 2-(4-((2-(3-Chlorophenyl)-6-cyclopropylpyridin-4-yl)amino)phenyl)ethanol hydrochloride], the IC50 is above 1000 nM.

As to `NC(C(=O)O)c1ccc(Nc2nc(-c3ccc(Cl)s3)nc3c2CCC3)cc1` (stereo not shown) [Example 12, 2-Amino-2-[4-[[2-(5-chloro-2-thienyl)-6,7-dihydro-5H-cyclopenta[d]pyrimidin-4-yl]amino]phenyl]acetic acid hydrochloride], the IC50 is above 1000 nM.

As to `FC(F)(F)Cc1ccc(Nc2cc(-c3cccc(Cl)c3)nc3c2CCC3)cc1` [Example 110, 2-(3-Chlorophenyl)-N-(4-(2,2,2-trifluoroethyl)phenyl)-6,7-dihydro-5H-cyclopenta[b]pyridin-4-amine hydrochloride], the IC50 is above 1000 nM.

As for `C[C@H](O)Cc1ccc(Nc2cc(-c3cccc(Cl)c3)nc3c2CCC3)cc1` [Example 107, (S)-1-(4-((2-(3-Chlorophenyl)-6,7-dihydro-5H-cyclopenta[b]pyridin-4-yl)amino)phenyl)propan-2-ol], the IC50 is above 1000 nM.

`FC(F)(F)c1cc(Cc2ccc(Cn3cc(Cl)cn3)cc2)nc(-c2cccc(Cl)c2)n1` [Example 218, 4-(4-((4-Chloro-1H-pyrazol-1-yl)methyl)benzyl)-2-(3-chlorophenyl)-6-(trifluoromethyl)pyrimidine]: the IC50 was above 1000 nM.

Consider `NC(=O)CCc1ccc(Nc2nc(-c3cccc(Cl)c3)nc3c2CCC3)cc1` [Example 167, 3-(4-((2-(3-Chlorophenyl)-6,7-dihydro-5H-cyclopenta[d]pyrimidin-4-yl)amino)phenyl)propanamide], for which the IC50 was above 1000 nM.

Take `NC(=O)CCc1ccc(Nc2cc(-c3cccc(Cl)c3)nc3c2CCC3)cc1` [Example 119, 3-(4-((2-(3-chlorophenyl)-6,7-dihydro-5H-cyclopenta[b]pyridin-4-yl)amino)phenyl)propanamide hydrochloride]: the half-maximal inhibitory concentration (IC50) was above 1000 nM.

With `O=C(O)Cc1ccc(Nc2cc(C(F)(F)F)nc(-c3ccc(Cl)s3)n2)cc1` [Example 296, 2-[4-[[2-(5-Chloro-2-thienyl)-6-(trifluoromethyl)pyrimidin-4-yl]amino]phenyl]acetic acid], the IC50 is above 1000 nM.

As for `OCCCc1ccc(Nc2cc(-c3cccc(Cl)c3)nc3c2CCC3)cc1` [Example 85, 3-(4-((2-(3-Chlorophenyl)-6,7-dihydro-5H-cyclopenta[b]pyridin-4-yl)amino)phenyl)propan-1-ol hydrochloride], the IC50 was below 1000 nM.

Turning to `O=C(O)c1ccc(Nc2nc(-c3ccc(Cl)cc3)nc(C3CC3)n2)cc1` [Example 38, 4-((4-(4-chlorophenyl)-6-cyclopropyl-1,3,5-triazin-2-yl)amino)benzoic acid], the IC50 was below 1000 nM.

Take `NC(=O)Cc1ccc(Nc2cc(-c3cc(F)cc(Cl)c3)nc3c2CCC3)cc1` [Example 152, 2-(4-((2-(3-Chloro-5-fluorophenyl)-6,7-dihydro-5H-cyclopenta[b]pyridin-4-yl)amino)phenyl)acetamide hydrochloride]: the IC50 is above 1000 nM.

`O=S1(=O)CCCc2nc(C3CCCC3)nc(Nc3ccc(CCO)cc3)c21` [Example 285, 2-Cyclopentyl-4-((4-(2-hydroxyethyl)phenyl)amino)-7,8-dihydro-6H-thiopyrano[3,2-d]pyrimidine 5,5-dioxide]: the concentration for half-maximal inhibition (IC50) was below 1000 nM.

Consider `OB1OCc2cc(Nc3nc(-c4ccc(Cl)cc4)nc4c3CCC4)ccc21` [Example 295, 2-(4-Chlorophenyl)-N-(1-hydroxy-3H-2,1-benzoxaborol-5-yl)-6,7-dihydro-5H-cyclopenta[d]pyrimidin-4-amine], for which the IC50 is above 1000 nM.

Regarding `OCCc1ccc(Nc2cc(C3=CCCC3)nc3c2CCC3)cc1` [Example 248, 2-(4-((2-(Cyclopent-1-en-1-yl)-6,7-dihydro-5H-cyclopenta[b]pyridin-4-yl)amino)phenyl)ethanol hydrochloride], the IC50 is above 1000 nM.

Turning to `CCc1cc(Cc2ccc(CC(=O)O)cc2)nc(-c2cccc(Cl)c2)n1` [Example 66, 2-(4-((2-(3-chlorophenyl)-6-ethylpyrimidin-4-yl)methyl)phenyl)acetic acid], the IC50 was above 1000 nM.

As for `CC(CO)Oc1ccc(Nc2cc(-c3cccc(Cl)c3)nc3c2CCC3)cc1` (stereo not shown) [Example 117, 2-(4-((2-(3-Chlorophenyl)-6,7-dihydro-5H-cyclopenta[b]pyridin-4-yl)amino)phenoxy)propan-1-ol hydrochloride], the IC50 is above 1000 nM.

Take `NC(=O)Cc1ccc(Nc2nc(OC3CCCC3)nc3c2CCC3)cc1` [Example 232, 2-(4-((2-(Cyclopentyloxy)-6,7-dihydro-5H-cyclopenta[d]pyrimidin-4-yl)amino)phenyl)acetamide]: the IC50 was above 1000 nM.
